Measured values taken from patent publication US20240279232A1, “USE OF SUBSTITUTED 5-(4-METHYL-6-PHENYL-4H-BENZO[F]IMIDAZO[1,5-A][1,4] DIAZEPIN-3-YL)-1,2,4-O[…] THE TREATMENT OF INFLAMMATORY CONDITIONS” (priority 2021, published 2024).
Where two headings read alike, the source gives them in different places.

What was measured:
MOR (μ opioid receptor) = molecular target: T1, MOR (μ opioid receptor) (Homo sapiens, UniProt P35372); test: MOR radioligand binding ([3H]-DAMGO, HEK293 cell homogenates); conditions: Percent inhibition at 10,000 nM; [3H]-DAMGO
T1 construct: expressed in transfected cells; host or cells: HEK293
Experimental: (§1) Radioligand binding assays. Detailed protocols for the primary and secondary radioligand binding assays can be found in the National Institute of Mental Health's Psychoactive Drug Screening Program (NIMH PDSP) Assay Protocol Book (Roth, 2018). Briefly, primary and secondary radioligand binding assays are carried out in a final of volume of 125 μL per well in appropriate binding buffer. […] Total binding and nonspecific binding are determined in the absence and presence of 10 μM of appropriate reference compound (Naltrindole DOR, Salvinorin A KOR and DAMGO MOR). In brief, plates are usually incubated at room temperature and in the dark for 90 min. Reactions are stopped by vacuum filtration onto 0.3% polyethyleneimine (PEI) soaked 96-well filter mats using a 96-well Filtermate harvester, followed by three washes with cold PBS buffer. Scintillation cocktail is then melted onto the microwave-dried filters on a hot plate and radioactivity counted in a Microbeta counter. The data (n=6) were analyzed by nonlinear regression.
(§2) Ligand affinities were determined for KOR (κ opioid receptor), DOR (δ opioid receptor), and MOR (μ opioid receptor) using radioligand binding assays at a screening concentration of 10,000 nM. For these assays, cell homogenates from HEK293 cells that overexpressed KOR, MOR, and DOR were used in combination with [^3H]-U69593, [^3H]-DAMGO, and [^3H]-DADLE, respectively Compounds that exceeded more than 50% radioligand displacement were investigated further in concentration-dependent experiments to determine Ki values. Gamma aminobutyric acid type A receptor (GABAAR) binding was determined with rat brain homogenate and ^3H-flunitrazepam. Flunitrazepam binds GABAAR subtypes that consists of two α and two β subunits and one γ or δ subunit. Strong affinities to α1-3,5,6β1-3γ1-y/δ GABAARS have been reported for flunitrazepam. The […] GABAAR subtype expression in the brain includes 43% α1β2γ2, 15% α2β3γ2+8% α2βγ1, 10% α3β3γ2, 6% α4βγ/δ, 4% α5β3γ2, and 4% α6β2γ2/δ. Therefore, compounds with high affinity toward the synaptic benzodiazepine-sensitive receptors (BZR) predominately bind α1-3β2-3γ1-2 GABAARs. Alternatively, compounds with weak BZR binding might be selective for α4-6βγ/δ GABAARs.
(§3) Psychoactive Drug Screening Program. Detailed protocols for the primary and secondary radioligand binding assays can be found in the National Institute of Mental Health's Psychoactive Drug Screening Program (NIMH PDSP) Assay Protocol Book. Briefly, primary and secondary radioligand binding assays are carried out in a final of volume of 125 μL per well in appropriate binding buffer. The radioactive ligand concentration is close to the Kd. Total binding and nonspecific binding are determined in the absence and presence of 10 μM of appropriate reference compound, respectively. In brief, plates are usually incubated at room temperature and in the dark for 90 min. Reactions are stopped by vacuum filtration onto 0.3% polyethyleneimine (PEI) soaked 96-well filter mats using a 96-well Filtermate harvester, followed by three washes with cold PBS buffer. Scintillation cocktail is then melted onto the microwave-dried filters on a hot plate and radioactivity counted in a Microbeta counter. The data (n=6) were analyzed by nonlinear regression.

[1] = test system: BZR (benzodiazepine site of GABAAR); test: GABAAR/BZR binding, rat brain homogenate with 3H-flunitrazepam; conditions: rat brain homogenate, 3H-flunitrazepam; for BZR %: Percent inhibition at 10,000 nM
Experimental: as §2, §3

KOR (κ opioid receptor) = molecular target: T2, KOR (κ opioid receptor) (Homo sapiens, UniProt P41145); test: KOR radioligand binding ([3H]-U69593, HEK293 cell homogenates)
T2 construct: expressed in transfected cells; host or cells: HEK293 (stably transfected)
Experimental: as §1, §2, §3

DOR (δ opioid receptor) = molecular target: T3, DOR (δ opioid receptor) (Homo sapiens, UniProt P41143); test: DOR radioligand binding ([3H]-DADLE, HEK293 cell homogenates); conditions: Percent inhibition at 10,000 nM; [3H]-DADLE
T3 construct: expressed in transfected cells; host or cells: HEK293
Experimental: as §1, §2, §3

Mouse microglia = test: Cell viability (CellTiter-Glo), mouse microglia; type: cell-based; conditions: CellTiter-Glo, activated microglia
Experimental: Next, a library of GABAAR ligands was investigated to identify compounds that reduce the production of NO as a marker of anti-inflammatory activity. […] NO was quantified with a Greiss assay. Cell viability was determined with CellTiter-Glo.
Nitric oxide production (Griess assay) and viability assay (CellTiter-Glo). 80 μL of mouse microglia culture (1×10^6 cells/mL) was plated into sterile 384 well plates representing non-activated wells. The remaining culture was activated with 50 ng/ml LPS (Invivogen, NC9836) and 150 U/mL IFNγ (R&D Systems, 485MI100) and distributed into the 384 well plates. […] Assay plates were incubated for approximately 24 hours (unless otherwise noted) at 37° C., centrifuged, and 40 μL of supernatant transferred to a new plate for analysis using the Griess Assay (Promega, Madison, WI). Absorbance at 530 nm was measured using a TECAN Infinite M1000 plate reader. The remaining 40 μL containing cells was analyzed for toxicity by the CellTiter-Glo Assay (Promega, Madison, WI). Luminescence was read using a TECAN Infinite M1000 plate reader.

[2] = Percent inhibition at 10,000 nM, [3H]-U69593
[3] = concentration-dependent, [3H]-U69593, read-out: KOR (Ki)

T3 sequence (P41143 whole entry): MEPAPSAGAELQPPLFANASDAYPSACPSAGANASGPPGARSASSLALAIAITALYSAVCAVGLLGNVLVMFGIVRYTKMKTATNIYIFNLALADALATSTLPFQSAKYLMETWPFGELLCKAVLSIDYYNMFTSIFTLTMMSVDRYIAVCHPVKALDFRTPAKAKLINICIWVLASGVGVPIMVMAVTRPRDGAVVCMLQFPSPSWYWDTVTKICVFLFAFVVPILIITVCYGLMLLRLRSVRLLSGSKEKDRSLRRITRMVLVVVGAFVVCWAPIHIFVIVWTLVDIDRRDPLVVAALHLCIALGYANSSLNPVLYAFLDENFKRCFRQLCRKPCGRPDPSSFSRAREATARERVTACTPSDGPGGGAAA
T1 sequence (P35372 whole entry, species assumed): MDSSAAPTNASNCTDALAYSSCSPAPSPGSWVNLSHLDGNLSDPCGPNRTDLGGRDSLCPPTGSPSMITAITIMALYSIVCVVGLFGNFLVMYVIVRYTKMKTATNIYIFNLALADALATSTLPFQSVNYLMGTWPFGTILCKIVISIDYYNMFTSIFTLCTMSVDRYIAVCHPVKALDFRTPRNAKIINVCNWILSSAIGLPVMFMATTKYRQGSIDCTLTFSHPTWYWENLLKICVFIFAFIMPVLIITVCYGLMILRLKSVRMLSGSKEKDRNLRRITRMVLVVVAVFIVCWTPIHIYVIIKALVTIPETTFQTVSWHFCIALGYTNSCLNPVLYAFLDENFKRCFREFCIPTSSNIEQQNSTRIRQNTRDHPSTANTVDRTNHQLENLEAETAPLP
T2 sequence (P41145 whole entry): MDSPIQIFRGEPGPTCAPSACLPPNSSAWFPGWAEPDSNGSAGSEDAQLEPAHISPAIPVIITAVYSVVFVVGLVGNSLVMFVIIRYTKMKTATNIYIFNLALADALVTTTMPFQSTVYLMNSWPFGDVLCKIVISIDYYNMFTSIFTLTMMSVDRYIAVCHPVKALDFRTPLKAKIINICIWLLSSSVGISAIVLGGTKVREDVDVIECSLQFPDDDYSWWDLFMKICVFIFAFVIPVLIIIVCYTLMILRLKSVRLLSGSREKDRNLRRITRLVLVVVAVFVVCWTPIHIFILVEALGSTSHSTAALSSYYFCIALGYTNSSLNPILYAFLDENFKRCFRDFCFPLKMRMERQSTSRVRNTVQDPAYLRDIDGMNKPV

Row | Structure (SMILES) | inhibition at 10 µM (MOR (μ opioid receptor)) [%] | BZR % [1] [%] | Ki [1] [nM] | inhibition at 10 µM (KOR (κ opioid receptor); [2]) [%] | Ki (KOR (κ opioid receptor); [3]) [nM] | inhibition at 10 µM (DOR (δ opioid receptor)) [%] | MOR % (MOR (μ opioid receptor)) [%] | KOR % (KOR (κ opioid receptor); [2]) [%] | DOR % (DOR (δ opioid receptor)) [%] | Ki (KOR (κ opioid receptor)) [nM] | cell viability / cytotoxicity in the NO competition experiments (in words) (Mouse microglia)
1 | Brc1ccc2c(c1)C(c1ccccc1)=NCc1c(-c3cnco3)ncn1-2 [KRM-II-73] | 11 | 97 | 45 | 83 | 736 | 32 |  |  |  |  | 
2 | Brc1ccc2c(c1)C(c1ccccn1)=NCc1c(-c3cnco3)ncn1-2 [KRM-II-97] | 18 | 93 | 140 | 62 | 1960 | 8 |  |  |  |  | 
3 | Cc1ncoc1-c1ncn2c1CN=C(c1ccccc1F)c1cc(Br)ccc1-2 [KRM-III-59] |  | 96 | 20 |  | 408 |  | 0 | 73 | 11 |  | 
4 | C#Cc1ccc2c(c1)C(c1ccccc1F)=NCc1c(-c3ocnc3C)ncn1-2 [KRM-III-65] | 0 | 96 | 45 | 64 | 879 | 16 |  |  |  |  | 
5 | Cc1ncoc1-c1ncn2c1CN=C(c1ccccc1)c1cc(Br)ccc1-2 [KRM-III-66] | 12 | 86 | 49 | 67 | 756 | 11 |  |  |  |  | 
6 | C#Cc1ccc2c(c1)C(c1ccccn1)=NCc1c(-c3cnco3)ncn1-2 [KRM-III-67] | 30 | 71 | 144 | 48 |  | 3 |  |  |  |  | 
7 | C#Cc1ccc2c(c1)C(c1ccccn1)=NCc1c(-c3ocnc3C)ncn1-2 [KRM-III-79] | 32 | 81 | 308 | 9 |  | 1 |  |  |  |  | 
8 | C#Cc1ccc2c(c1)C(c1ccccc1F)=N[C@@H](C)c1c(C(=O)NC)ncn1-2 [MP-II-023] | 0 | 97 | 37 | 91 | 119 | 16 |  |  |  |  | 
9 | C#Cc1ccc2c(c1)C(c1ccccn1)=NCc1c(C(=O)OC(C)C)ncn1-2 [MP-II-068] | 0 | 97 | 42 | 85 | 550 | 34 |  |  |  |  | 
10 | C#Cc1ccc2c(c1)C(c1ccccc1F)=N[C@H](C)c1c(C(=O)OC)ncn1-2 [MP-III-004] | 0 | 78 | 445 | 76 | 599 | 24 |  |  |  |  | 
11 | C#Cc1ccc2c(c1)C(c1ccccc1F)=N[C@@H](C)c1c(C(N)=O)ncn1-2 [MP-III-018.B] | 2 | 97 | 17 | 51 | 2780 | 10 |  |  |  |  | 
12 | C#Cc1ccc2c(c1)C(c1ccccc1F)=N[C@H](C)c1c(C(N)=O)ncn1-2 [MP-III-019.B] | 2 | 94 | 54 | 62 | 1530 | 0 |  |  |  |  | 
13 | C#Cc1ccc2c(c1)C(c1ccccc1F)=N[C@@H](C)c1c(C(=O)OC)ncn1-2 [MP-III-021] | 0 | 88 | 219 | 93 | 122 | 22 |  |  |  |  | 
14 | C#Cc1ccc2c(c1)C(c1ccccn1)=NCc1c(C(=O)OC)ncn1-2 [MP-III-024] | 0 | 81 | 277 | 43 |  | 24 |  |  |  |  | 
15 | COC(=O)c1ncn2c1[C@@H](C)N=C(c1ccccc1F)c1cc(Br)ccc1-2 [MP-III-058] | 0 | 86 | 290 | 84 |  | 4 |  |  |  |  | 
16 | C#Cc1ccc2c(c1)C(c1ccccn1)=NCc1c(-c3nc(C)no3)ncn1-2 [MP-III-085] | 0 | 82 | 357 | 40 |  | 0 |  |  |  |  | 
17 | C#Cc1ccc2c(c1)C(c1ccccc1F)=N[C@H](C)c1c(C(=O)O)ncn1-2 [SH-053-2'F-R-CH3-Acid] | 0 | 93 | 37 | 16 |  | 0 |  |  |  |  | 
18 | C#Cc1ccc2c(c1)C(c1ccccc1F)=N[C@H](C)c1c(C(=O)OCC)ncn1-2 [SH-053-2′F-R-CH3] | 28 | 85 | 379 | 89 | 240 | 32 |  |  |  |  | 
19 | C#Cc1ccc2c(c1)C(c1ccccc1F)=N[C@@H](C)c1c(C(=O)OCC)ncn1-2 [SH-053-2′F-S-CH3] | 7 | 92 | 111 | 93 | 90 | 36 |  |  |  |  | 
20 | C#Cc1ccc2c(c1)C(c1ccccc1F)=N[C@@H](C)c1c(C(=O)O)ncn1-2 [SH-053-2′P-S-CH3 Acid] | 0 | 93 | 29 | 20 |  | 18 |  |  |  |  | 
21 | CCOC(=O)c1ncn2c1[C@@H](C)N=C(c1ccccc1F)c1cc(Br)ccc1-2 [SH-I-047] | 16 | 84 | 238 | 82 |  | 0 |  |  |  | 86 | 
22 | CCOC(=O)c1ncn2c1[C@H](C)N=C(c1ccccc1F)c1cc(Br)ccc1-2 [SH-I-048B] | 0 | 61 | 96 | 95 |  | 0 |  |  |  | 63 | 
23 | Fc1ccccc1C1=NCc2c(-c3cnco3)ncn2-c2ccc(Br)cc21 [SH-I-85] | 16 | 99 | 11 | 91 | 162 | 33 |  |  |  |  | 
24 | C#Cc1ccc2c(c1)C(c1ccccn1)=NCc1c(C(=O)O)ncn1-2 [SR-II-54] | 8 | 80 | 69 | 9 |  | 1 |  |  |  |  | 
25 | C[C@@H]1C[C@H]2[C@@H]3CCC4=CC(=O)C=C[C@]4(C)[C@@]3(F)[C@@H](O)C[C@]2(C)[C@@]1(O)C(=O)CO [dexamethasone, reference compound] |  |  |  |  |  |  |  |  |  |  | without cell toxicity
